Experimental findings from ChEMBL document CHEMBL3272235, “alpha-(2-Pyridine)benzyl aryl ketones as potential hypocholesteremic agents” (J Med Chem, 1978) are described below.

The subject of data set [1] is Rattus norvegicus. Nature of the data set: Hypocholesteremic activity in Sprague-Dawley rat assessed as change in serum cholesterol level at 25 mg/kg, po administered through intubation tube daily for 7 days measured 24 hrs post last dose relative to vehicle-treated control. The format is functional.
Data set [2] relates to Rattus norvegicus. Nature of the data set: Estrogenic activity in ovariectomized female Sprague-Dawley rat assessed as change in uterus weight measured as micrograms of […]-estradiol that produce an estrogenic response equivalent to compound at 25 mg/kg, po administered through intubation tube daily for 7 days. The class given is ADME, organism-based. On the set-up: dose 25 mg/kg, route oral. The note with it: in vivo, 168 h.

As for `O=C(c1ccc(OCc2ccccc2)cc1)C(c1ccccc1)c1ccccn1` (configuration not stated), the Activity in data set [1] worked out at 9.3%. On the same count and under the same terms, in the case of `COc1ccc(C(=O)C(c2ccccc2)c2ccccn2)cc1` (configuration not stated) it was -15.7%; in that of `O=C(c1ccc(F)cc1)C(c1ccccc1)c1ccccn1` (configuration not stated), -1.3%; in that of `O=C(c1ccc2c(c1)OCO2)C(c1ccccc1)c1ccccn1` (configuration not stated), 6.3%. Still for that read-out and setting: in the case of `O=C(c1cccnc1)C(c1ccccc1)c1ccccn1` (configuration not stated) it was -2.1%. Regarding `O=C(c1cccc(OCc2ccccc2)c1)C(c1ccccc1)c1ccccn1` (configuration not stated), the Activity in data set [1] is listed as 12.1%.

As for `O=C(c1ccccc1Oc1ccccc1)C(c1ccccc1)c1ccccn1` (configuration not stated), the Activity in data set [1] is on record as -15%. For the compound `CC(C)(C)c1ccccc1C(=O)C(c1ccccc1)c1ccccn1` (configuration not stated), in data set [1], the Activity is -42%. Moreover, the estradiol equivalent in data set [2] turned out to be 0.29 µg.

In the case of `O=C(c1ccccc1F)C(c1ccccc1)c1ccccn1` (configuration not stated), the Activity in data set [1] was -30%. Besides, the estradiol equivalent in data set [2] was 0.45 µg. Regarding `O=C(c1ccccc1Br)C(c1ccccc1)c1ccccn1` (configuration not stated), in data set [1], the Activity is reported as -54.1%. In addition, the estradiol equivalent in data set [2] stood at 0.87 µg. For `COc1ccc(C(=O)C(c2ccccc2)c2ccccn2)cc1OC` (configuration not stated), the Activity in data set [1] was found to be 6.3%. On the same count and under the same terms, the value for `O=C(c1cccc(Cl)c1)C(c1ccccc1)c1ccccn1` (configuration not stated) was 0%. The same measure, in the same setting: in the case of `Cc1cccc(C(=O)C(c2ccccc2)c2ccccn2)c1` (configuration not stated) it was 13.2%. Consider `O=C(c1ccccc1Cl)C(c1ccccc1)c1ccccn1` (configuration not stated), for which the Activity in data set [1] was -56.9%. In data set [2], the estradiol equivalent is 0.8 µg.

For `O=C(c1ccccc1I)C(c1ccccc1)c1ccccn1` (configuration not stated), the Activity in data set [1] is on record as -77.1%. Further, in data set [2], the estradiol equivalent turned out to be 0.7 µg. On to `O=C(c1ccc(Cl)cc1)C(c1ccccc1)c1ccccn1` (configuration not stated), for which the Activity in data set [1] is given as -3.5%. Take `O=C(c1ccc(I)cc1)C(c1ccccc1)c1ccccn1` (configuration not stated): in data set [1], the Activity is given as 0%. Consider `COc1ccc(C(=O)C(c2ccccc2)c2ccccn2)cc1Br` (configuration not stated), for which, in data set [1], the Activity was 11.3%. On to `O=C(c1ccc(Br)cc1)C(c1ccccc1)c1ccccn1` (configuration not stated), for which the Activity in data set [1] is given as -22.8%. Turning to `O=C(c1cccc(Br)c1)C(c1ccccc1)c1ccccn1` (configuration not stated), the Activity in data set [1] amounted to 6.7%. For the compound `CC(C)(C)c1ccc(C(=O)C(c2ccccc2)c2ccccn2)cc1` (configuration not stated), the Activity in data set [1] was 0%. As for `O=C(c1cc(-c2ccccc2)nc2cc(Cl)ccc12)C(c1ccccc1)c1ccccn1` (configuration not stated), the Activity in data set [1] was found to be 3.8%. Turning to `Cc1ccc(C(=O)C(c2ccccc2)c2ccccn2)cc1` (configuration not stated), in data set [1], the Activity worked out at 1.5%.

On to `O=C(c1ccc2ccccc2c1)C(c1ccccc1)c1ccccn1` (configuration not stated), for which the Activity in data set [1] worked out at 0%.

For `O=C(c1ccccc1)C(c1ccccc1)c1ccccn1` (configuration not stated), in data set [1], the Activity was 2.5%. With `Cc1ccccc1C(=O)C(c1ccccc1)c1ccccn1` (configuration not stated), the Activity in data set [1] is reported as -64.9%. Further, in data set [2], the estradiol equivalent amounted to 0.82 µg.
